The target in the first assay is T1, VCAM-1/α4β1 integrin binding (Homo sapiens, UniProt P05556+P13612).
T1 construct: Jurkat (ATCC TIB-152), known to express integrin α4β1; endogenous in cells; host or cells: Jurkat (ATCC TIB-152)
T1 sequence (P13612 34-1032): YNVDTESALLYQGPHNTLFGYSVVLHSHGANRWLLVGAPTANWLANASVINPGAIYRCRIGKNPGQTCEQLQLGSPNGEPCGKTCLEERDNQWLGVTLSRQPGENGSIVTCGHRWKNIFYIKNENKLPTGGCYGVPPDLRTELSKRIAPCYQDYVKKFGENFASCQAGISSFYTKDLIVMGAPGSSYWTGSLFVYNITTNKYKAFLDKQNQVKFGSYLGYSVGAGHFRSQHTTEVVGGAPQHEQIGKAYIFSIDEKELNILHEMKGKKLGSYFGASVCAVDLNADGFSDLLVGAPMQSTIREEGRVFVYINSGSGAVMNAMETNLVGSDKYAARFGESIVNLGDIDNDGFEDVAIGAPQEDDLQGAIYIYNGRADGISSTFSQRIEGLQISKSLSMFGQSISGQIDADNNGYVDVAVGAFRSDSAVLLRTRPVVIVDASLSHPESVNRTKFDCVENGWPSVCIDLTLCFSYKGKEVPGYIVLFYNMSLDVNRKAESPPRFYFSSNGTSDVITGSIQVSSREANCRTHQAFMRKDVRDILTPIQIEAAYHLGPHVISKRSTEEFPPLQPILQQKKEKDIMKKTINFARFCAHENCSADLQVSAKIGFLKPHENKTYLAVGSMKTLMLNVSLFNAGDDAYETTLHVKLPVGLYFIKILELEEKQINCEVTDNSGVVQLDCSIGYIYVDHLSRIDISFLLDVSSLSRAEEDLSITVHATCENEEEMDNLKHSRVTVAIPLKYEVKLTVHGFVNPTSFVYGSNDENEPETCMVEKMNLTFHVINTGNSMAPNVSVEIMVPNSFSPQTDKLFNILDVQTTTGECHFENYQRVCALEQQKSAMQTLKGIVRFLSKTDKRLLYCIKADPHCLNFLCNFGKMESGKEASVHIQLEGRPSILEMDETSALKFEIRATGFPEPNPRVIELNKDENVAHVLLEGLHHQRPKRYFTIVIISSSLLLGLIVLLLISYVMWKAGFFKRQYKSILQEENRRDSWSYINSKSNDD
T1 sequence (P05556 21-798): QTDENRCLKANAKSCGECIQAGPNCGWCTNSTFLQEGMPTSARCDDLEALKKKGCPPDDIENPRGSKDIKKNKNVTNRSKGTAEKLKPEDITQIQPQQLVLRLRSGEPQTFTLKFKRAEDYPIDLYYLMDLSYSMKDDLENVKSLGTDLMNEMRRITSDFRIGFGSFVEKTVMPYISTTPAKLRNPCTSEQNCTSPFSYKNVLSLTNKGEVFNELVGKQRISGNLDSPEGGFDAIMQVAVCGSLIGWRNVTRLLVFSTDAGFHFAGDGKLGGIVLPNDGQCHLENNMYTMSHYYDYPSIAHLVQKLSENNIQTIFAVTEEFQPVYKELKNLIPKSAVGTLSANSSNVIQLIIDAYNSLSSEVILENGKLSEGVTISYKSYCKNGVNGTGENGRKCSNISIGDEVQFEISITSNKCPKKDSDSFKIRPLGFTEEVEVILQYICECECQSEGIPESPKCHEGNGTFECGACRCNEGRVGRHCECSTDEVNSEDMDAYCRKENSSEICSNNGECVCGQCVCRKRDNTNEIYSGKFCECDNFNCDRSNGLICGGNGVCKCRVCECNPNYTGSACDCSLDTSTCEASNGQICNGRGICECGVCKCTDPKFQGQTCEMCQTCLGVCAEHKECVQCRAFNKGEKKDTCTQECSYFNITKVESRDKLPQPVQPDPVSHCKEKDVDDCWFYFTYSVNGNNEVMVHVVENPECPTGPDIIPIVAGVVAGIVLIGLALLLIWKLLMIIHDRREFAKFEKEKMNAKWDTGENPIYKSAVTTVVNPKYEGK
Put plainly: Assay of antagonistic activity to VCAM-1/α4β1 integrin binding under the existence of blood serum (Jurkat cell adhesion to VCAM-1/Fc). As to conditions: Jurkat cells, recombinant human VCAM-1/Fc, 50% human blood serum. Type of assay: cell-based. On the procedure: Assay of Antagonistic Activity to VCAM-1/α4β1 Integrin Binding Under the Existence of Blood Serum
The capacity of a test substance antagonistic to the binding of cell strain of human T cells, Jurkat (ATCC TIB-152), known to express integrin α4β1, to VCAM-1 was determined.
Fifty μl/well of a solution (500 ng/ml) of recombinant human VCAM-1/Fc (R & D systems) diluted with buffer A (0.1 M NaHCO3, pH 9.6) was added to a 96-well microtiter plate (Nunc Maxisorp). After the incubation at 4° C. overnight and washing once with PBS, a buffer (buffer B) obtained by diluting Block Ace (Snow Brand Milk Products Co., Ltd.) with PBS to ½ concentration was added in an amount of 150 μl/well. After the incubation at room temperature for 2 hours, buffer B was removed and the plate was washed with PBS once.
Jurkat cells were washed with Dulbecco modified Eagle medium (SIGMA, hereinafter referred to as “DMEM”) once. Then, the cells were again suspended in a binding buffer (DMEM containing 20 mM HEPES, 0.1% BSA, 2 mM MnCl2 and 50% human blood serum (Sigma)) to become 1×10^6 cells/mL.
Sixty μl of a test substance of various concentrations obtained by the dilution with the binding buffer was added to a round-bottom, 96-well plate (IWAKI). Immediately thereafter, 60 μl of the Jurkat cells (1×10^6 cells/ml) were added thereto and shaken on a plate shaker (IKA-Labortechnik, IKA-SCHUTTLER MTS-4) at 1000 rpm for 10 seconds. In 120 μL of the cell suspension to which the test substance was added, each 100 μL thereof was transferred on the VCAM-1/Fc-coated plate and incubated in dark place at room temperature for 60 minutes. After the shaking on the plate shaker at 1000 rpm for 30 seconds, the solution was immediately removed. Then, the unbound cells were removed by washing them with PBS once. A buffer C (PBS containing 0.82% Triton X-100) was added to the plate in an amount of 70 μL/well. After the shaking on the plate shaker at 1000 rpm for 5 minutes, the bound Jurkat cells were lysed. After centrifuging the cells on a plate centrifuge (SIGMA 4-15C) at room temperature at 2500 rpm for 5 minutes, 50 μL of supernatant thereof was transferred to a 96-well microtiter plate (Nunc Maxisorp). Each 50 μL of Substrate Buffer (Promega, CytoTox 96 Non-Radioactive Cytotoxicity Assay) was added thereto, shaken on a plate shaker at 1000 rpm for 10 seconds and reacted in dark place at room temperature for 30 minutes. Then, each 50 μL of Stop Solution (Promega, CytoTox 96 Non-Radioactive Cytotoxicity Assay) was added thereto and shaken on a plate shaker at 1000 rpm for 10 seconds. […] The absorbance thus obtained detects an activity of lactate dehydrogenase (LDH) dissolved in the supernatant of each well. Namely, the absorbance is proportional to the number of remaining Jurkat cells on the plate via the binding to VCAM-1. The test was conducted in duplicate and the binding rate of each test substance in various concentrations was determined while the absorbance of the test substance-free well was determined to be 100% and the absorbance of the Jurkat-cell-free well was determined to be 0%. The concentration for the 50% inhibition of binding, IC50, was calculated.
In general, IC50 refers to the concentration needed to halve the response being measured. Take `CCNCc1ccc2c(=O)n(-c3ccc(C[C@H](NC(=O)c4c(Cl)cccc4Cl)C(=O)O)cc3)c(=O)n(C)c2c1` [Example 143, N-(2,6-dichlorobenzoyl)-4-[7-ethylaminomethyl-1-methyl-2,4-quinazoline-dione-3-yl]-L-phenylalanine]: the 50% inhibitory concentration (IC50) amounted to 7 nM. `CN(C)CCN(C)c1ccc2c(c1)c(=O)n(-c1ccc(C[C@H](NC(=O)c3c(Cl)cccc3Cl)C(=O)O)cc1)c(=O)n2C` [Example 4]: the IC50 was 14 nM. Turning to `CCCNCc1ccc2c(=O)n(-c3ccc(C[C@H](NC(=O)c4c(Cl)cccc4Cl)C(=O)O)cc3)c(=O)n(C)c2c1` [Example 145, N-(2,6-dichlorobenzoyl)-4-[1-methyl-7-propylaminomethyl-2,4-quinazoline-dione-3-yl]-L-phenylalanine], the IC50 amounted to 3.8 nM. Take `CN(C)C1CCN(c2ccc3c(c2)c(=O)n(-c2ccc(C[C@H](NC(=O)c4c(Cl)cccc4Cl)C(=O)O)cc2)c(=O)n3C)C1` (some centres unmarked) [Example 6]: the half-maximal inhibitory concentration (IC50) was determined as 8.9 nM. For the compound `COCc1ccc2c(=O)n(-c3ccc(C[C@H](NC(=O)c4c(Cl)cccc4Cl)C(=O)O)cc3)c(=O)n(C)c2c1` [Example 63], the IC50 was 10.8 nM. On to `CCCNCc1ccc2c(c1)c(=O)n(-c1ccc(C[C@H](NC(=O)c3c(Cl)cccc3Cl)C(=O)O)cc1)c(=O)n2C` [Example 98], for which the IC50 was 18.1 nM.

With `Cn1c(=O)n(-c2ccc(C[C@H](NC(=O)c3c(Cl)cccc3Cl)C(=O)O)cc2)c(=O)c2ncccc21` [Example 47, N-(2,6-dichlorobenzoyl)-4-[1-methyl-2,4-dioxo-1,2,3,4-tetrahydro-3-(2H)pyrido[3,2-d]pyrimidinyl]-L-phenylalanine], the IC50 worked out at 15.7 nM. The same measure, in the same setting: in the case of `CCCNCCCc1ccc2c(c1)c(=O)n(-c1ccc(C[C@H](NC(=O)c3c(Cl)cccc3Cl)C(=O)O)cc1)c(=O)n2C` [Example 209] it was 15.2 nM. `Cn1ncc2c(=O)n(-c3ccc(C[C@H](NC(=O)c4c(Cl)cccc4Cl)C(=O)O)cc3)c(=O)n(C)c21` [Example 18]: the IC50 is 11.7 nM.

`Cn1c(=O)n(-c2ccc(CC(NC(=O)c3c(Cl)cccc3Cl)C(=O)O)cc2)c(=O)c2cc(N3CCOCC3)ccc21` (centres unmarked) [Example 1]: the IC50 came out at 1.7 nM.

The subject of another assay is lymphocytes in the peripheral blood. Put plainly: Activity to elevate the number of lymphocytes in the peripheral blood in a rat. In kind it is in vivo, male Wistar rat. The settings on record: oral, 3 mg/kg, 1 hour later, criterion 195% or more of vehicle group. On the procedure: Activity to Elevate the Number of Lymphocytes in the Peripheral Blood in a Rat
The activity of the compounds of the present invention to elevate the number of lymphocytes in the rat was examined.
A dosing solution was prepared by dissolving the compounds of the present invention to dimethylsulfoxide, adding the mixed solution of polyethylene glycol 400: propylene glycol=1:1 and turning it upside and down repeatedly. The final concentration of DMSO was adjusted to become 2.5%.
The dosing solution of a test substance (3 mg/kg, 10 mg/kg or 30 mg/kg) was orally administered to a male Wistar rat (6 to 8 weeks age) in an amount of 4 mL/kg. After the settled time points after the administration, the blood was drawn from its abdominal large vein under anesthesia and stirred in a EDTA-2K coated container for blood collection. Then, the number of lymphocytes in the peripheral blood was determined by an automated comprehensive hematology analyzer (SF-3000, Sysmex). The test was executed in n=5, and the ratio (%) of the number of lymphocytes in the peripheral blood in a test-substance-administered group to that in a vehicle-treated group (a control group) was calculated while the average value of the number of lymphocytes in the peripheral blood in a control group was determined to be 100%.
`COC(=O)[C@H](Cc1ccc(-n2c(=O)c3cncnc3n(C)c2=O)cc1)NC(=O)c1c(Cl)cccc1Cl` [Example 129, N-(2,6-dichlorobenzoyl)-4-(1-methyl-2,4-dioxo-1,2,3,4-tetrahydropyrimido[4,5-d]pyrimidine-3(2H)-yl)-L-phenylalanine methylester]: the “Elevation of lymphocytes in the peripheral blood, pass/failure” value (from here on “Elevation of lymphocytes … pass/failure”) is “◯ (pass (criterion measure or more))”.

Staying with this assay, now noted: oral, 10 mg/kg, 6 hours later, criterion 150% or more of vehicle group.
For the compound `CNCc1ccc2c(=O)n(-c3ccc(C[C@H](NC(=O)c4c(Cl)cccc4Cl)C(=O)OC4CCCC4)cc3)c(=O)n(C)c2c1` [Example 157, N-(2,6-dichlorobenzoyl)-4-[7-methylaminomethyl-1-methyl-2,4-quinazoline-dione-3-yl]-L-phenylalanine cyclopentylester], the “Elevation of lymphocytes … pass/failure” value is recorded as “◯ (pass (criterion measure or more))”.

Consider `CCNCc1ccc2c(=O)n(-c3ccc(C[C@H](NC(=O)c4c(Cl)cccc4Cl)C(=O)OC(C)C)cc3)c(=O)n(C)c2c1` [Example 156, N-(2,6-dichlorobenzoyl)-4-[7-ethylaminomethyl-1-methyl-2,4-quinazoline-dione-3-yl]-L-phenylalanine isopropylester], for which the “Elevation of lymphocytes … pass/failure” value was “◯ (pass (criterion measure or more))”. Regarding `CCCNCc1ccc2c(=O)n(-c3ccc(C[C@H](NC(=O)c4c(Cl)cccc4Cl)C(=O)OC(C)C)cc3)c(=O)n(C)c2c1` [Example 159, N-(2,6-dichlorobenzoyl)-4-[1-methyl-7-propylaminomethyl-2,4-quinazoline-dione-3-yl]-L-phenylalanine isopropylester], the “Elevation of lymphocytes … pass/failure” value is on record as “◯ (pass (criterion measure or more))”.

Regarding `CNCc1ccc2c(=O)n(-c3ccc(C[C@H](NC(=O)c4c(Cl)cccc4Cl)C(=O)OCC(C)C)cc3)c(=O)n(C)c2c1` [Example 158, N-(2,6-dichlorobenzoyl)-4-[7-methylaminomethyl-1-methyl-2,4-quinazoline-dione-3-yl]-L-phenylalanine isobutylester], the “Elevation of lymphocytes … pass/failure” value is “◯ (pass (criterion measure or more))”.

Still in this assay, the particulars now being: oral, 30 mg/kg, 12 hours later, criterion 150% or more of vehicle group.
For the compound `CNCCc1cc2c(=O)n(-c3ccc(C[C@H](NC(=O)c4c(Cl)cccc4Cl)C(=O)OC(C)C)cc3)c(=O)n(C)c2cc1F` [Example 228, N-(2,6-dichlorobenzoyl)-4-{7-fluoro-1-methyl-6-[2-(methylamino)ethyl]-2,4-dioxo-1,2,3,4-tetrahydroquinazoline-3(2H)-yl}-L-phenylalanine isopropylester], the “Elevation of lymphocytes … pass/failure” value was “◯ (pass (criterion measure or more))”. As to `CNCc1cc2c(=O)n(-c3ccc(C[C@H](NC(=O)c4c(Cl)cccc4Cl)C(=O)OC(C)C)cc3)c(=O)n(C)c2cc1F` [Example 184, Isopropyl (2S)-2-[(2,6-dichlorobenzoyl)amino]-3-[4-(7-fluoro-1-methyl-6-[(methylamino)methyl]-2,4-dioxo-1,2,3,4-tetrahydro-3(2H)-quinazolinyl)phenyl]propanoate], the “Elevation of lymphocytes … pass/failure” value is recorded as “◯ (pass (criterion measure or more))”. The same measure, in the same setting: in the case of `CNCc1ccc2c(c1)c(=O)n(-c1ccc(C[C@H](NC(=O)c3c(C)cccc3Cl)C(=O)OC(C)C)cc1)c(=O)n2C` [Example 187, Isopropyl (2S)-2-[(2-chloro-6-methylbenzoyl)amino]-3-[4-(1-methyl-6-[(methylamino)methyl]-2,4-dioxo-1,2,3,4-tetrahydro-3(2H)-quinazolinyl)phenyl]propanoate] it was “◯ (pass (criterion measure or more))”. For the compound `CC(C)OC(=O)[C@H](Cc1ccc(-n2c(=O)c3cc(CN)ccc3n(C)c2=O)cc1)NC(=O)c1c(Cl)cccc1Cl` [Example 174, Isopropyl (2S)-3-[4-(6-(aminomethyl)-1-methyl-2,4-dioxo-1,2,3,4-tetrahydro-3(2H)-quinazolinyl)phenyl]-2-[(2,6-dichlorobenzoyl)amino]propanoate], the “Elevation of lymphocytes … pass/failure” value is on record as “◯ (pass (criterion measure or more))”. On the same count and under the same terms, in the case of `CC(C)OC(=O)[C@H](Cc1ccc(-n2c(=O)c3cc(OCCN(C)C)ccc3n(C)c2=O)cc1)NC(=O)c1c(Cl)cccc1Cl` [Example 155, N-(2,6-dichlorobenzoyl)-4-[6-(2-dimethylaminoethoxy)-1-methyl-2,4-quinazoline-dione-3-yl]-L-phenylalanine isopropylester] it was “◯ (pass (criterion measure or more))”.

(Values after patent US7345049B2, “Phenylalanine derivatives” (Ajinomoto Co., Inc., priority 2003, dated 2008).)
